Source: US20240270821A1, “GIP/GLP1/GCG TRI-RECEPTOR AGONISTS AND USES THEREOF” (priority 2023, published 2024)
Like-named read-outs stand apart in the source and are kept apart here. Marks after values point to notes of the source that are not given here. Starred links: 1 amine or outer side, 2 acyl side, 3 side chain; linkers in the order of their positions; H or OH if unused. Non-standard residues stand in square brackets, D forms with d. Groups on a side chain read outwards from the residue. *: point of attachment. C20 diacid = O=C(O)CCCCCCCCCCCCCCCCCCC(=O)*; C18 diacid = O=C(O)CCCCCCCCCCCCCCCCC(=O)*; αMePhe(2-F) = C[C@](N)(Cc1ccccc1F)C(=O)O; γGlu = O=C(O)[C@H](CCC(=O)[*:2])N[*:1]; NMeY = CN[C@@H](Cc1ccc(O)cc1)C(=O)O; αMeY = C[C@](N)(Cc1ccc(O)cc1)C(=O)O; αMeF = C[C@](N)(Cc1ccccc1)C(=O)O; 4Pal = N[C@@H](Cc1ccncc1)C(=O)O; αMeL = CC(C)C[C@](C)(N)C(=O)O; αMeS = C[C@](N)(CO)C(=O)O; Orn = NCCC[C@H](N)C(=O)O; AEEA = NCCOCCOCC(=O)O; Aib = CC(C)(N)C(=O)O

Tests used:
hGLP-1R [1] = target: T1, hGLP-1R (Homo sapiens, UniProt P43220); assay: GLP-1R CHO cell β-arrestin recruitment assay; assay type: cell-based; set-up: host or cells: CHO-K1 (PathHunter, assay-ready frozen cells); conditions: for % Stimulation Max: normalized to GLP-1(7-36) as maximum control; for EC50: CHO-K1 PathHunter, β-arrestin-2, 0.1% casein, read-out: hGLP1R β-arrestin Rel EC50;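 on all read-outs here: luminescence read after 90 min peptide exposure at 37 °C and a further 60 min with detection reagent at room temperature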
Target sequence in this assay (P43220 24-463): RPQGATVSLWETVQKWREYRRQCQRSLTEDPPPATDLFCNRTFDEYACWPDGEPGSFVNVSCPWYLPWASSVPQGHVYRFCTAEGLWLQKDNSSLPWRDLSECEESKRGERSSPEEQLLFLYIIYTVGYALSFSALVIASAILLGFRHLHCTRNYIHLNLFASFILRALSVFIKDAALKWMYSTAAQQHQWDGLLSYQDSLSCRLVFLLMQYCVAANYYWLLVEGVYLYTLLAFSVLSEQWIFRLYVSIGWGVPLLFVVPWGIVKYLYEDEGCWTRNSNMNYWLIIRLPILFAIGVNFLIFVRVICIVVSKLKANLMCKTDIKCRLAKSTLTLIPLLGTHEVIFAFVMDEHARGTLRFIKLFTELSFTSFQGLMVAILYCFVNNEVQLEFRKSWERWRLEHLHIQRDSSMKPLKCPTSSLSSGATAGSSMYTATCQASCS
Target sequence in this assay (P32121 whole entry partner): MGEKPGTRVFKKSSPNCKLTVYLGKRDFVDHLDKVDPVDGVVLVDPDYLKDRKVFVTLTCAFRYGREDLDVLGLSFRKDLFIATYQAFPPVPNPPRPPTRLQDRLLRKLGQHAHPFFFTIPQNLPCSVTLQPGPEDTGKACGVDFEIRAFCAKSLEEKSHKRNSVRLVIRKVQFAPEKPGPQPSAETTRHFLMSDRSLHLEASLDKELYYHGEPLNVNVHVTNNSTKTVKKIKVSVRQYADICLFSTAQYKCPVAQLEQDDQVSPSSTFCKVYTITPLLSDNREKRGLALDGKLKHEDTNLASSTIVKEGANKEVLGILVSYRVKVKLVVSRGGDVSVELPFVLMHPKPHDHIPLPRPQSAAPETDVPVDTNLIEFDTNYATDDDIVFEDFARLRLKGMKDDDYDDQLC
Procedure: CHO-KI cells expressing Pro-Link-tagged Human GLP-1R and enzyme-acceptor-tagged β-arrestin-2 may be obtained from DiscoveRx and prepared as assay-ready frozen cells. Test peptides are solubilized in DMSO and serial dilutions are performed using the Echo acoustic dispenser (LabCyte). Assay media is the PathHunter Cell Assay Buffer (DiscoveRx) containing 0.1% w/v hydrolyzed Casein (Sigma). […] Plates are incubated for 90 minutes in a 37′C/5% C02 incubator and 10 μl of PathHunter detection reagent is added (DiscoveRx) and plates are incubated at room temperature for 60 minutes. Luminescence signal is measured. Peptide concentration-response curves fit to a four-parameter logistic model to calculate potency as an EC50.

human GLP1-R = human GLP1-R (Homo sapiens, UniProt P43220); assay: GLP1-R internalization assay in HEK293 cells; assay type: cell-based; conditions: for EC50: HEK293 cells expressing SNAP-GLP-1R, read-out: GLP1R Internalization EC50
Sequence of human GLP1-R (P43220 24-463): as the sequence (P43220 24-463) above

[2] = Body weight in diet-induced obese C57BL/6 mice; assay type: in vivo; conditions: percent of starting weight, DIO mice, mean ± SEM n=5
Procedure: To investigate the effect of the polypeptides as described herein on weight loss, exemplary polypeptides are dosed to C57BL/6 diet-induced obese (DIO) mice. Specifically, DIO male C57BL/6 mice (Taconic, Germantown, NY) maintained on a calorie-rich diet are used in the following studies. Mice are individually housed in a temperature-controlled (24° C.) facility with 12-hour light/dark cycle (lights on 22:00) and free access to food (TD95217) and water. After a minimum of 2 weeks acclimation to the facility, the mice are randomized according to their body weight, so each experimental group of animals would have similar starting body weight. The body weights range from 41 to 50 g. All groups contain 5 mice. […] Treatments are administered by subcutaneous (SC) injection (10 mL/kg) to ad libitum fed DIO mice 30 to 90 minutes prior to the onset of the dark cycle either once daily (QD) or once every 3 days (Q3D) for 9-16 days. Body weight and food intake are measured daily throughout the study. Body weight is presented as percent of the starting weight. […] Data are presented as mean±SEM of 5 animals per group in Table 7 below. Statistical analysis is performed using repeated measures ANOVA, followed by Dunnett's method comparison test.

hGcgR = hGcgR (Homo sapiens, UniProt P47871); assay: Functional cAMP activation in the presence of 0.1% casein (no HSA); assay type: cell-based; conditions: read-out: Relative cAMP EC50, hGcgR;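 further: intracellular cAMP rise after 30 min at 37 °C, read by HTRF against a cAMP standard curve, scaled from buffer only (0%) to maximal control ligand response (100%)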
Sequence of hGcgR (P47871 26-477): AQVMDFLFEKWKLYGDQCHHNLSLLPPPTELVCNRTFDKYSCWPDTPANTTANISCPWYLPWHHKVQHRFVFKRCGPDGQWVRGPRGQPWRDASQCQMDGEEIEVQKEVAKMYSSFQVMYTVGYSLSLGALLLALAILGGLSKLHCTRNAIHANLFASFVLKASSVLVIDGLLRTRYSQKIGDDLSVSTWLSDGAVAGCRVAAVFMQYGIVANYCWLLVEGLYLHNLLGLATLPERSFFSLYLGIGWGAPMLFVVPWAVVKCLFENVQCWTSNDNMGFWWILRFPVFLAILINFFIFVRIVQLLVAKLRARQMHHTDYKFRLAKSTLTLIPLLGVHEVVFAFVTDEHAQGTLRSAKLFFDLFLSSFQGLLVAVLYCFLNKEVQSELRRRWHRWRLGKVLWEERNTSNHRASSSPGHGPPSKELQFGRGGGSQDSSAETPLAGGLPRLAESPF

hGLP-1R [3] = target: T1, hGLP-1R; assay: Functional cAMP activity in the presence of 1% HSA; assay type: cell-based; conditions: read-out: cAMP Rel EC50, hGLP-1R
Target sequence in this assay (P43220 24-463): as the sequence (P43220 24-463) above

hGIPR [4] = target: T2, hGIPR (Homo sapiens, UniProt P48546); assay: Functional cAMP activity in the presence of 1% HSA; assay type: cell-based; conditions: read-out: cAMP Rel EC50, hGIPR
T2 sequence (P48546 22-466): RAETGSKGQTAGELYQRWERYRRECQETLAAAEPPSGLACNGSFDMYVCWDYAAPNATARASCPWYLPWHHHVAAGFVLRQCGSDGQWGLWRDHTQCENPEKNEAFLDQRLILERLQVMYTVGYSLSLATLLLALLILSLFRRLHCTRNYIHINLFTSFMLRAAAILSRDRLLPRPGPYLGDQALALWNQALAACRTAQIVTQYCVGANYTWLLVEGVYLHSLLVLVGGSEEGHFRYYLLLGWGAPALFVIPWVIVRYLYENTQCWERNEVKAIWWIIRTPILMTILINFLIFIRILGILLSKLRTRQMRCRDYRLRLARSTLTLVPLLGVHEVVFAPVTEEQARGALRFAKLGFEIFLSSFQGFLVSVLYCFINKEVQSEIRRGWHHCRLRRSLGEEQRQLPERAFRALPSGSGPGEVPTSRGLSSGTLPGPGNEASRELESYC

hGIPR [5] = target: T2, hGIPR; assay: Functional cAMP activation in the presence of 0.1% casein (no HSA); assay type: cell-based; conditions: read-out: Relative cAMP EC50, hGIPR;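 on Relative cAMP EC50, hGIPR: intracellular cAMP rise after 30 min at 37 °C read by HTRF against a standard curve, scaled between buffer alone (0%) and top control ligand concentration (100%), four-parameter fit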;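 on Relative cAMP EC50, hGLP-1R: intracellular cAMP rise after 30 min at 37 °C read by HTRF, normalized between buffer only (0%) and maximal control ligand (100%), four-parameter variable-slope fit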
hGLP-1R [6] = target: T1, hGLP-1R; assay: as above; assay type: cell-based; conditions: read-out: Relative cAMP EC50, hGLP-1R
Target sequence in this assay (P43220 24-463): as the sequence (P43220 24-463) above

human GcgR = human GcgR (Homo sapiens, UniProt P47871); assay: Functional cAMP activity in the presence of 1% HSA; assay type: cell-based; conditions: read-out: cAMP Rel EC50, hGcgR
Sequence of human GcgR (P47871 26-477): as the sequence (P47871 26-477) above

[7] = in the presence of 0.1% casein (no HSA), geometric mean
[8] = normalized to maximum concentration of GLP-1 (100%)

| Molecule | % Stimulation Max (hGLP-1R [1]) [%] | Internalization % TOP (human GLP1-R) [%] | Body weight (%) ([2]; 10 nmol/kg SC Q3D, 14 days) | EC50 (hGcgR; [7]) [nM] | EC50 (hGLP-1R [3]) [nM] | EC50 (hGIPR [4]) [nM] | EC50 (hGIPR [5]; [7]) [nM] | EC50 (hGLP-1R [1]) [nM] | EC50 (human GLP1-R) [nM] | Internalization % TOP (human GLP1-R; [8]) [%] | EC50 (hGLP-1R [6]; [7]) [nM] | EC50 (human GcgR) [nM] | EC50 (hGcgR) [nM] | Body weight (%) ([2]; 10 nmol/kg SC QD, 9 days) | EC50 (hGIPR [5]) [nM] | EC50 (hGLP-1R [6]) [nM] | Body weight (%) ([2]; 10 nmol/kg SC QD, 15 days) |
| --- | --- | --- | --- | --- | --- | --- | --- | --- | --- | --- | --- | --- | --- | --- | --- | --- | --- |
| Tirzepatide [reference compound] | 10.5 | 60.3 | – | – | – | – | – | – | – | – | – | – | – | – | – | – | – |
| H-Y[Aib]QGTFTSDFSK[αMeL]LDKK([AEEA-γGlu-C20 diacid])AQ[Aib]AFIEYLLAGAPSSGEPPPSEG-NH2 [Example 24] | – | – | 86.10 +/− 1.98**** % | – | – | – | – | – | – | – | – | – | – | – | – | – | – |
| H-Y[Aib]QGTFTSDYSI[αMeL]LDKIAAK([AEEA-AEEA-γGlu-C20 diacid])QFVQWLIE[Aib]GPSSGEPPPSEG-NH2 [Example 323] | 44 | – | – | 6.04 | 293 | 37.7 | 0.232 | 10.8 | 28.2 | 84.8 | 1.56 | 1440 | – | – | – | – | – |
| H-Y[Aib]QGTFTSDFSK[αMeL]LDKK([AEEA-AEEA-γGlu-C20 diacid])AQ[Aib]AFIEYLLAGGPSSGEPPPSSE-NH2 [Example 5] | 18.4 | – | – | 7.4 | 675 | 32.5 | 0.177 | > 10000 | 53.4 | 75 | 2.37 | 2670 | – | – | – | – | – |
| H-Y[Aib]QGT[αMePhe(2-F)]TSD[4Pal][αMeS]I[αMeL]LD[Orn]K([AEEA-AEEA-γGlu-C18 diacid])AQ[Aib][Orn]FI[dE][αMeY]LIEGGPSSGEPPPSEG-NH2 [Example 490] | – | – | – | – | 9.8 | 0.861 | – | – | – | – | – | 262 | 3.05 | 80.75 ± 3.23 | 0.0159 | 0.183 | – |
| H-[NMeY][Aib]QGT[αMeF]TSDYSILLDKQAAK([AEEA-AEEA-γGlu-C20 diacid])AFVQWLIAGGPSSGEPPPSEG-NH2 [Example 301] | 59.1 | – | – | 6.73 | 82.4 | 81.8 | 0.722 | 13.2 | – | – | 0.641 | 1500 | – | – | – | – | – |
| H-Y[Aib]QGTFTSDFSK[αMeL]LDKK([AEEA-γGlu-C20 diacid])AQ[Aib]AFIEYLLAGGPSSGEPPPSSE-NH2 [Example 3] | 16.5 | – | – | 3.8 | 546 | 48.1 | 0.217 | > 10000 | 49.2 | 69.7 | 1.67 | 1590 | – | – | – | – | – |
| H-Y[Aib]QGT[αMeF]TSDYSILLDKIAAK([AEEA-AEEA-γGlu-C18 diacid])NFIEYLVEGGPSSGEPPPSEG-NH2 [Example 307] | 70.8 | – | – | 1.68 | 209 | 65.3 | 0.446 | 9.86 | – | – | 0.836 | 1880 | – | – | – | – | – |
| CC[C@H](C)[C@H](NC(=O)[C@H](CC(C)C)NC(=O)[C@](C)(Cc1ccc(O)cc1)NC(=O)[C@@H](CCC(=O)O)NC(=O)[C@@H](NC(=O)[C@H](Cc1ccccc1)NC(=O)[C@H](CC(N)=O)NC(=O)C(C)(C)NC(=O)[C@H](CCC(N)=O)NC(=O)[C@H](C)NC(=O)[C@H](CCCCNC(=O)CC[C@H](NC(=O)CC[C@H](NC(=O)CCCCCCCCCCCCCCCCC(=O)O)C(=O)O)C(=O)O)NC(=O)[C@H](CCCN)NC(=O)[C@H](CC(=O)O)NC(=O)[C@H](CC(C)C)NC(=O)[C@](C)(CC(C)C)NC(=O)[C@@H](NC(=O)[C@](C)(CO)NC(=O)[C@H](Cc1ccncc1)NC(=O)[C@H](CC(=O)O)NC(=O)[C@H](CO)NC(=O)[C@@H](NC(=O)[C@](C)(Cc1ccccc1F)NC(=O)[C@@H](NC(=O)CNC(=O)[C@H](CCC(N)=O)NC(=O)C(C)(C)NC(=O)[C@@H](N)Cc1ccc(O)cc1)[C@@H](C)O)[C@@H](C)O)[C@@H](C)CC)[C@@H](C)CC)C(=O)N[C@@H](CCC(=O)O)C(=O)NCC(=O)NCC(=O)N1CCC[C@H]1C(=O)N[C@@H](CO)C(=O)N[C@@H](CO)C(=O)NCC(=O)N[C@@H](CCC(=O)O)C(=O)N1CCC[C@H]1C(=O)N[C@@H](CCC(=O)O)C(=O)N1CCC[C@H]1C(=O)N[C@@H](CCC(=O)O)C(N)=O [Example 452] | – | – | – | – | – | 0.846 | – | – | – | – | – | 240 | 2.44 | – | 0.0118 | 0.235 | 74.13 ± 4.11 |
| H-H[Aib]QGT[αMePhe(2-F)]TSDYSILLDKK([AEEA-γGlu-C20 diacid])AA[Aib]AFIEYLIEAGPSSGEPPPSEG-NH2 [Example 298] | 86.4 | – | – | 1.04 | 70.9 | 41.3 | 0.138 | 3.29 | – | – | 0.277 | 1570 | – | – | – | – | – |
| H-Y[Aib]QGTFTSDYSI[αMeL]LDKK([AEEA-AEEA-γGlu-C20 diacid])AA[Aib]AFIEYLLEGGPSSGEPPPSEG-NH2 [Example 294] | 35.3 | – | – | 1.07 | 554 | 54.1 | 0.318 | 27.7 | – | – | 2.16 | 518 | – | – | – | – | – |
| H-Y[Aib]QGT[αMePhe(2-F)]TSDYSKLLDKIAQK([AEEA-γGlu-C20 diacid])AFIEYLIEGGPSSGAPPPSEG-NH2 [Example 339] | – | – | 82.36 +/− 3.01**** % | 6.81 | 192 | 28.8 | 0.101 | – | – | – | 1.06 | 1510 | – | – | – | – | – |
| H-[NMeY][Aib]QGT[αMeF]TSDYSILLDKIAAK([AEEA-AEEA-γGlu-C20 diacid])AFVQWLIAGGPSSGEPPPSEG-NH2 [Example 300] | 40.3 | – | – | 6.54 | 98 | 12.9 | 0.0975 | 15.7 | – | – | 1.05 | 976 | – | – | – | – | – |
